The nature of the data set: recombinant barcode read abundance after kanamycin selection (control-corrected) (log10(CPM+1)); higher = more efficient recombination; sequences stand for … in AGTGCAGAGAAAATCGGCCAGTTTTCTCTGCCTGCAGTCCGCATGCCGT…AGATTTATGCAGCGGACTGCCTTTCTCCCAAAGTGATAAACCGGACAGTATCATGGACCGGTTTTCCCGGTAATCCGTATTTGCAAGGTTGGTTTCACT; site = the 11-nt target. An outline of the steps: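 Targets and IS621 bridge RNA target-binding loops were paired in oligos, each with a promoter, a barcode and the J23119-driven first 104 bridge RNA bases. A vector carrying the remaining 73 bp and a T7-inducible recombinase received these by Gibson cloning, and the pool was co-electroporated into E. coli with a donor plasmid. Duplicate plates contained chloramphenicol/ampicillin LB agar (control) or chloramphenicol/ampicillin/kanamycin with 0.1 mM IPTG. Recombination efficiency comes from averaged, control-corrected counts per million of recombinant-junction barcodes, reported as log10(CPM+1).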
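Note: IS621 recombinase and bridge RNA in Escherichia coli cells.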

“GTCTACGCTTGGGTTCTAACCTGTTGCCA (site GTCTACGCTTG)”: the “recombinant barcode read abundance (log10)” value amounted to 0.253.
In the case of “GTCTCACCTTGGGTTCTAACCTGTTGCGG (site GTATCTCCTCC)” it was 0.094; in that of “GTCTCACCTTGGGTTCTAACCTGTTGCGG (site GTCTCACCTCC)”, 0.91.
Take “GTCTGTTCTTGGGTTCTAACCTGTTGCCT (site GACTGTTCTAG)”: the “recombinant barcode read abundance (log10)” value was 0.17.
In the case of “GTCTGTTCTTGGGTTCTAACCTGTTGCCT (site GCCTGTTCTAG)” it was 0.071; in that of “GTCTGTTCTTGGGTTCTAACCTGTTGCCT (site GGCTGTTCTAG)”, 0.16; in that of “GTCTGTTCTTGGGTTCTAACCTGTTGCCT (site GTCTGTTCTAG)”, 0.852.
As for “GTCTTCTCTTGGGTTCTAACCTGTTGCTT (site GTCTACTCTCA)”, the “recombinant barcode read abundance (log10)” value was found to be 0.0691.
On to “GTCTTCTCTTGGGTTCTAACCTGTTGCTT (site GTCTTCTCTAA)”, for which the “recombinant barcode read abundance (log10)” value came out at 0.487.
In the case of “GTGAAGCCTTGGGTTCTAACCTGTTGCCA (site GTGAAGCCTTG)” it was 0.758; in that of “GTGAAGCCTTGGGTTCTAACCTGTTGCCA (site GTGTATCCTTG)”, 0.165.
In the case of “GTGAGAGCTTGGGTTCTAACCTGTTGCGG (site GTGAGAGCTCC)” it was 1.43.
In the case of “GTGAGAGCTTGGGTTCTAACCTGTTGCGG (site GTGAGCACTCC)” it was 0.0453; in that of “GTGAGCACTTGGGTTCTAACCTGTTGCTA (site AATTAGCCTAG)”, 0.0422.
Consider “GTGAGCACTTGGGTTCTAACCTGTTGCTA (site GTGAGCACTTA)”, for which the “recombinant barcode read abundance (log10)” value was 0.337.
Take “GTGAGGACTTGGGTTCTAACCTGTTGCCT (site ATGAGGACTAG)”: the “recombinant barcode read abundance (log10)” value turned out to be 0.739.
In the case of “GTGAGGACTTGGGTTCTAACCTGTTGCCT (site CTGAGGACTAG)” it was 0.133; in that of “GTGAGGACTTGGGTTCTAACCTGTTGCCT (site GTGAGGACTAG)”, 1.49; in that of “GTGAGGACTTGGGTTCTAACCTGTTGCCT (site TTGAGGACTAG)”, 0.316.
In the case of “GTGAGGACTTGGGTTCTAACCTGTTGCGT (site GTGAGGACTAC)” it was 3.11; in that of “GTGAGGACTTGGGTTCTAACCTGTTGCGT (site GTGCGGACTAC)”, 0.236; in that of “GTGAGGACTTGGGTTCTAACCTGTTGCTG (site GTGAGGACTCA)”, 2.68.
In the case of “GTGAGGACTTGGGTTCTAACCTGTTGCTG (site GTGTGGACTCT)” it was 0.0356.
Consider “GTGATAGCTTGGGTTCTAACCTGTTGCGG (site GATATAGCTCC)”, for which the “recombinant barcode read abundance (log10)” value was 0.16.
In the case of “GTGATAGCTTGGGTTCTAACCTGTTGCGG (site GTGATAGCTCC)” it was 1.12.
For the sequence “GTGATCCCTTGGGTTCTAACCTGTTGCCT (site GAGATCCCTAG)”, the “recombinant barcode read abundance (log10)” value is 0.585.
In the case of “GTGATCCCTTGGGTTCTAACCTGTTGCCT (site GTGATCCCTAG)” it was 1.18.
In the case of “GTGCACCCTTGGGTTCTAACCTGTTGCTT (site GGGCATCCTAA)” it was 0.115; in that of “GTGCACCCTTGGGTTCTAACCTGTTGCTT (site GTGCACCCTAA)”, 1.57.
In the case of “GTGCCTGCTTGGGTTCTAACCTGTTGCCT (site GCGCATGCTAG)” it was 0.039.
On to “GTGCCTGCTTGGGTTCTAACCTGTTGCCT (site GTGCCTGCTAG)”, for which the “recombinant barcode read abundance (log10)” value was 1.05.
In the case of “GTGCGCCCTTGGGTTCTAACCTGTTGCGG (site GTGCGCCCTAC)”, the “recombinant barcode read abundance (log10)” value was 0.369.
As for “GTGCGCCCTTGGGTTCTAACCTGTTGCGG (site GTGCGCCCTCC)”, the “recombinant barcode read abundance (log10)” value was 1.28.
In the case of “GTGCGCTCTTGGGTTCTAACCTGTTGCGC (site CCAGCTGCTAG)” it was 0.0659; in that of “GTGCGCTCTTGGGTTCTAACCTGTTGCGC (site GTGCGCTCTGC)”, 0.145.
In the case of “GTGGAAGCTTGGGTTCTAACCTGTTGCCT (site GAGGAAGCTAG)” it was 0.316.
In the case of “GTGGAAGCTTGGGTTCTAACCTGTTGCCT (site GCGGAAGCTAG)” it was 0.367; in that of “GTGGAAGCTTGGGTTCTAACCTGTTGCCT (site GGGGAAGCTAG)”, 0.262; in that of “GTGGAAGCTTGGGTTCTAACCTGTTGCCT (site GTGGAAGCTAG)”, 1.1.
Turning to “GTGGATGCTTGGGTTCTAACCTGTTGCCT (site GGGGATTCTAG)”, the “recombinant barcode read abundance (log10)” value is 0.28.
In the case of “GTGGATGCTTGGGTTCTAACCTGTTGCCT (site GTGGATGCTAG)” it was 1.6.
For “GTGGGCCCTTGGGTTCTAACCTGTTGCCT (site GTATGCCCTAG)”, the “recombinant barcode read abundance (log10)” value stood at 0.02.
For “GTGGGCCCTTGGGTTCTAACCTGTTGCCT (site GTGGGCCCTAG)”, the “recombinant barcode read abundance (log10)” value was 2.07.
In the case of “GTGGGCCCTTGGGTTCTAACCTGTTGCTG (site ATCGGCCCTCA)” it was 0.302; in that of “GTGGGCCCTTGGGTTCTAACCTGTTGCTG (site GTGGGCCCTCA)”, 2.73; in that of “GTGGGCTCTTGGGTTCTAACCTGTTGCCT (site CTGGGCTCTTG)”, 0.0529.
For “GTGGGCTCTTGGGTTCTAACCTGTTGCCT (site GTGGGCTCTAG)”, the “recombinant barcode read abundance (log10)” value was found to be 2.01.
In the case of “GTGGTAGCTTGGGTTCTAACCTGTTGCCT (site GTGGTAACTAG)” it was 0.857.
“GTGGTAGCTTGGGTTCTAACCTGTTGCCT (site GTGGTACCTAG)”: the “recombinant barcode read abundance (log10)” value amounted to 0.209.
With “GTGGTAGCTTGGGTTCTAACCTGTTGCCT (site GTGGTAGCTAG)”, the “recombinant barcode read abundance (log10)” value was found to be 1.42.
In the case of “GTGGTAGCTTGGGTTCTAACCTGTTGCCT (site GTGGTATCTAG)” it was 0.0998.
In the case of “GTGGTGGCTTGGGTTCTAACCTGTTGCCT (site GTGGTGGCTAG)” it was 0.764.
In the case of “GTGGTGGCTTGGGTTCTAACCTGTTGCCT (site GTTGGGGCTAG)” it was 0.151; in that of “GTGTAGGCTTGGGTTCTAACCTGTTGCAG (site GTGTAGGCTCT)”, 2.66; in that of “GTGTAGGCTTGGGTTCTAACCTGTTGCAG (site GTGTAGTCTCG)”, 0.0205.
With “GTGTATCCTTGGGTTCTAACCTGTTGCCA (site GTGAAGCCTTG)”, the “recombinant barcode read abundance (log10)” value came to 0.186.
In the case of “GTGTATCCTTGGGTTCTAACCTGTTGCCA (site GTGTATCCTTG)” it was 0.196; in that of “GTGTATTCTTGGGTTCTAACCTGTTGCCT (site ACTGTCACTCC)”, 0.0809; in that of “GTGTATTCTTGGGTTCTAACCTGTTGCCT (site GTGTATTCTAG)”, 1.44.
In the case of “GTGTCTACTTGGGTTCTAACCTGTTGCCT (site GTGTCTACTAG)” it was 0.754; in that of “GTGTCTACTTGGGTTCTAACCTGTTGCCT (site TTGTATACTAG)”, 0.0293.
In the case of “GTGTCTCCTTGGGTTCTAACCTGTTGCGA (site GAGTGTCCTTC)” it was 0.00692; in that of “GTGTCTCCTTGGGTTCTAACCTGTTGCGA (site GTGTCTCCTTC)”, 0.996.
On to “GTGTGGACTTGGGTTCTAACCTGTTGCAG (site GTGAGGACTCA)”, for which the “recombinant barcode read abundance (log10)” value is 0.0484.
Consider “GTGTGGACTTGGGTTCTAACCTGTTGCAG (site GTGTGGACTCT)”, for which the “recombinant barcode read abundance (log10)” value was 2.18.
In the case of “GTGTGGCCTTGGGTTCTAACCTGTTGCCA (site GTGTGGCCTTG)” it was 0.574; in that of “GTGTGGCCTTGGGTTCTAACCTGTTGCCA (site TCCGATACTAC)”, 0; in that of “GTGTGGCCTTGGGTTCTAACCTGTTGCTT (site GAGTGCCCTAA)”, 0.107.
In the case of “GTGTGGCCTTGGGTTCTAACCTGTTGCTT (site GTGTGGCCTAA)” it was 0.294; in that of “GTGTGTACTTGGGTTCTAACCTGTTGCCT (site GTGTGTACTAG)”, 1.21; in that of “GTGTGTACTTGGGTTCTAACCTGTTGCCT (site GTGTGTCCTAG)”, 0.101.
In the case of “GTGTGTACTTGGGTTCTAACCTGTTGCCT (site GTGTGTGCTAG)” it was 0.24; in that of “GTGTGTACTTGGGTTCTAACCTGTTGCCT (site GTGTGTTCTAG)”, 0.0215.
For the sequence “GTGTGTGCTTGGGTTCTAACCTGTTGCCT (site GTGTGTACTAG)”, the “recombinant barcode read abundance (log10)” value came to 0.821.
In the case of “GTGTGTGCTTGGGTTCTAACCTGTTGCCT (site GTGTGTCCTAG)” it was 0.0466.
In the case of “GTGTGTGCTTGGGTTCTAACCTGTTGCCT (site GTGTGTGCTAG)” it was 1.44; in that of “GTGTGTGCTTGGGTTCTAACCTGTTGCCT (site GTGTGTTCTAG)”, 0.0513.

These data come from the supplement of paper PMC11208160.
